Measurements published in the supplement of paper PMC10307832.

Key:
Assay in all cases: relative viability (nuclei count vs DMSO), 5 days (fraction); higher = more cells survive
Quizartinib + Foretinib = compound: CC(C)(C)c1cc(NC(=O)Nc2ccc(-c3cn4c(n3)sc3cc(OCCN5CCOCC5)ccc34)cc2)no1 [Quizartinib] + COc1cc2c(Oc3ccc(NC(=O)C4(C(=O)Nc5ccc(F)cc5)CC4)cc3F)ccnc2cc1OCCCN1CCOCC1 [Foretinib] (partner 0.25 µM)
How it was run: (§1)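 Nuclei were stained with Hoechst during a one-step fixation (final 0.05% Triton X-100, 1% formaldehyde, 1 ug/ml Hoechst) carried out 5 days after dosing, then counted on 4× images. The cells, lung cancer lines in 1536-well plates, had been dosed by pin tool the day after seeding with one drug alone or a fixed anchor-drug dose plus five library-drug doses (not always all listed) in √10 steps. Relative viability is the nuclei count in treated wells divided by that in vehicle wells, and each value is the median of duplicate plates.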

Quizartinib + AZD7762 = compound: CC(C)(C)c1cc(NC(=O)Nc2ccc(-c3cn4c(n3)sc3cc(OCCN5CCOCC5)ccc34)cc2)no1 [Quizartinib] + NC(=O)Nc1cc(-c2cccc(F)c2)sc1C(=O)N[C@H]1CCCNC1 [AZD7762] (partner 0.2 µM)
How it was run: as §1

Quizartinib + Tozasertib = compound: CC(C)(C)c1cc(NC(=O)Nc2ccc(-c3cn4c(n3)sc3cc(OCCN5CCOCC5)ccc34)cc2)no1 [Quizartinib] + Cc1cc(Nc2cc(N3CCN(C)CC3)nc(Sc3ccc(NC(=O)C4CC4)cc3)n2)n[nH]1 [Tozasertib] (partner 0.1 µM)
How it was run: as §1

YM155 + Alpelisib = compound: COCC[n+]1c2c(n(Cc3cnccn3)c1C)C(=O)c1ccccc1C2=O [YM155] + Cc1nc(NC(=O)N2CCC[C@H]2C(N)=O)sc1-c1ccnc(C(C)(C)C(F)(F)F)c1 [Alpelisib] (partner 2 µM)
How it was run: as §1

| Cell Line | relative viability (Quizartinib + Foretinib; first compound 0.001 µM) | relative viability (Quizartinib + Foretinib; first compound 0.003162 µM) | relative viability (Quizartinib + Foretinib; first compound 0.01 µM) | relative viability (Quizartinib + Foretinib; first compound 0.03162 µM) | relative viability (Quizartinib + Foretinib; first compound 0.1 µM) | relative viability (Quizartinib + AZD7762; first compound 0.001 µM) | relative viability (Quizartinib + AZD7762; first compound 0.003162 µM) | relative viability (Quizartinib + AZD7762; first compound 0.01 µM) | relative viability (Quizartinib + AZD7762; first compound 0.03162 µM) | relative viability (Quizartinib + AZD7762; first compound 0.1 µM) | relative viability (Quizartinib + Tozasertib; first compound 0.001 µM) | relative viability (Quizartinib + Tozasertib; first compound 0.003162 µM) | relative viability (Quizartinib + Tozasertib; first compound 0.01 µM) | relative viability (Quizartinib + Tozasertib; first compound 0.03162 µM) | relative viability (Quizartinib + Tozasertib; first compound 0.1 µM) | relative viability (YM155 + Alpelisib; first compound 0.002 µM) | relative viability (YM155 + Alpelisib; first compound 0.006325 µM) | relative viability (YM155 + Alpelisib; first compound 0.02 µM) | relative viability (YM155 + Alpelisib; first compound 0.06325 µM) |
| --- | --- | --- | --- | --- | --- | --- | --- | --- | --- | --- | --- | --- | --- | --- | --- | --- | --- | --- | --- |
| BEN | 0.672 | 0.772 | 0.648 | 0.424 | 0.672 | 0.66 | 0.766 | 0.563 | 0.582 | 0.676 | 0.48 | 0.504 | 0.562 | 0.54 | 0.39 | 1.1 | 1.06 | 0.965 | 1.13 |
| PC-3 [JPC-3] | 0.947 | 1.03 | 1.11 | 1.04 | 1.07 | 0.545 | 0.811 | 0.781 | 0.75 | 0.766 | 0.835 | 0.849 | 0.909 | 0.849 | 0.852 | 1.02 | 1.02 | 1.07 | 0.972 |
| LC-2-ad | 0.883 | 0.857 | 0.977 | – | 0.904 | 0.75 | 0.835 | 0.91 | 0.883 | 0.835 | 0.373 | 0.436 | 0.451 | – | 0.451 | 0.768 | 0.977 | 1 | 0.392 |
